Active and inactive are the calls of the source. The rule behind the calls is not given here.
Legend:
[1] = test system: Klebsiella pneumoniae; experiment: Potentiation of ciprofloxacin-induced antibacterial activity against Klebsiella pneumoniae ATCC 13883 assessed as minimum modulatory concentration up to 32 uM measured after 16 hrs in presence of MIC/4 ciprofloxacin; format: functional; details: ATCC 13883, 16 h, read-out: MEC
[2] = test system: Klebsiella pneumoniae; experiment: Potentiation of erythromycin-induced antibacterial activity against Klebsiella pneumoniae ATCC 13883 assessed as minimum modulatory concentration up to 32 uM measured after 16 hrs in presence of MIC/4 erythromycin; format: functional; details: ATCC 13883, 16 h, read-out: MEC
[3] = test system: Macrophage cell line; experiment: Induction of TNFalpha production in human PBMC-differentiated macrophages after 24 hrs by ELISA; format: cell-based
[4] = test system: Macrophage cell line; experiment: Antiinflammatory activity in human PBMC-differentiated macrophages assessed as inhibition of LPS-induced prostaglandin production at 0.01 to 10 uM measured after 24 hrs by ELISA; format: functional, cell-based
[5] = test system: Enterococcus faecium; experiment: Potentiation of ciprofloxacin-induced antibacterial activity against Enterococcus faecium ATCC 700221 assessed as minimum modulatory concentration up to 32 uM measured after 16 hrs in presence of MIC/4 ciprofloxacin; format: functional; details: ATCC 700221, 16 h, read-out: MEC
[6] = test system: Pseudomonas aeruginosa; experiment: Potentiation of methicillin-induced antibacterial activity against Pseudomonas aeruginosa ATCC BAA-2108 assessed as minimum modulatory concentration up to 32 uM measured after 16 hrs in presence of MIC/4 methicillin; format: functional; details: ATCC BAA-2108, 16 h, read-out: MEC
[7] = test system: Macrophage cell line; experiment: Induction of prostaglandin production in human PBMC-differentiated macrophages after 24 hrs by ELISA; format: cell-based
[8] = test system: Pseudomonas aeruginosa; experiment: Potentiation of geneticin-induced antibacterial activity against Pseudomonas aeruginosa ATCC BAA-2108 assessed as minimum modulatory concentration up to 32 uM measured after 16 hrs in presence of MIC/4 geneticin; format: functional; details: ATCC BAA-2108, 16 h, read-out: MEC
[9] = test system: Staphylococcus aureus; experiment: Potentiation of erythromycin-induced antibacterial activity against Staphylococcus aureus ATCC 33592 assessed as minimum modulatory concentration up to 32 uM measured after 16 hrs in presence of MIC/4 erythromycin; format: functional; details: ATCC 33592, 16 h, read-out: MEC
[10] = test system: Streptococcus pyogenes; experiment: Potentiation of erythromycin-induced antibacterial activity against Streptococcus pyogenes ATCC 14289 assessed as minimum modulatory concentration up to 32 uM measured after 16 hrs in presence of MIC/4 erythromycin; format: functional; details: ATCC 14289, 16 h, read-out: MEC
[11] = test system: Macrophage cell line; experiment: Antiinflammatory activity in human PBMC-differentiated macrophages assessed as inhibition of LPS-induced IL-8 production at 0.01 to 10 uM measured after 24 hrs by ELISA; format: functional, cell-based
[12] = test system: Pseudomonas aeruginosa; experiment: Potentiation of ciprofloxacin-induced antibacterial activity against Pseudomonas aeruginosa ATCC BAA-2108 assessed as minimum modulatory concentration up to 32 uM measured after 16 hrs in presence of MIC/4 ciprofloxacin; format: functional; details: ATCC BAA-2108, 16 h, read-out: MEC
[13] = test system: Escherichia coli; experiment: Potentiation of ciprofloxacin-induced antibacterial activity against Escherichia coli ATCC 43894 assessed as minimum modulatory concentration up to 32 uM measured after 16 hrs in presence of MIC/4 ciprofloxacin; format: functional; details: ATCC 43894, 16 h, read-out: MEC
[14] = test system: Pseudomonas aeruginosa; experiment: Potentiation of erythromycin-induced antibacterial activity against Pseudomonas aeruginosa ATCC BAA-2108 assessed as minimum modulatory concentration up to 32 uM measured after 16 hrs in presence of MIC/4 erythromycin; format: functional; details: ATCC BAA-2108, 16 h, read-out: MEC
[15] = test system: Pseudomonas aeruginosa; experiment: Toxicity in Pseudomonas aeruginosa ATCC BAA-2108 up to 32 uM measured after 16 hrs; format: organism-based; details: in vitro
[16] = test system: Escherichia coli; experiment: Potentiation of geneticin-induced antibacterial activity against Escherichia coli ATCC 43894 assessed as minimum modulatory concentration up to 32 uM measured after 16 hrs in presence of MIC/4 geneticin; format: functional; details: ATCC 43894, 16 h, read-out: MEC
[17] = test system: Klebsiella pneumoniae; experiment: Potentiation of tetracycline-induced antibacterial activity against Klebsiella pneumoniae ATCC 13883 assessed as minimum modulatory concentration up to 32 uM measured after 16 hrs in presence of MIC/4 tetracycline; format: functional; details: ATCC 13883, 16 h, read-out: MEC
[18] = test system: Streptococcus pyogenes; experiment: Potentiation of methicillin-induced antibacterial activity against Streptococcus pyogenes ATCC 14289 assessed as minimum modulatory concentration up to 32 uM measured after 16 hrs in presence of MIC/4 methicillin; format: functional; details: ATCC 14289, 16 h, read-out: MEC
[19] = test system: Streptococcus pyogenes; experiment: Potentiation of geneticin-induced antibacterial activity against Streptococcus pyogenes ATCC 14289 assessed as minimum modulatory concentration up to 32 uM measured after 16 hrs in presence of MIC/4 geneticin; format: functional; details: ATCC 14289, 16 h, read-out: MEC
[20] = test system: Macrophage cell line; experiment: Cytotoxicity against human PBMC-differentiated macrophages treated for 24 hrs followed by compound washout and measured after 48 hrs by MTT assay; format: cell-based
[21] = test system: Enterococcus faecium; experiment: Toxicity in Enterococcus faecium ATCC 700221 up to 32 uM measured after 16 hrs; format: organism-based; details: in vitro
[22] = test system: Pseudomonas aeruginosa; experiment: Potentiation of tetracycline-induced antibacterial activity against Pseudomonas aeruginosa ATCC BAA-2108 assessed as minimum modulatory concentration up to 32 uM measured after 16 hrs in presence of MIC/4 tetracycline; format: functional; details: ATCC BAA-2108, 16 h, read-out: MEC
[23] = test system: Enterococcus faecium; experiment: Potentiation of methicillin-induced antibacterial activity against Enterococcus faecium ATCC 700221 assessed as minimum modulatory concentration up to 32 uM measured after 16 hrs in presence of MIC/4 methicillin; format: functional; details: ATCC 700221, 16 h, read-out: MEC
[24] = test system: Klebsiella pneumoniae; experiment: Toxicity in Klebsiella pneumoniae ATCC 13883 up to 32 uM measured after 16 hrs; format: organism-based
[25] = test system: Streptococcus pyogenes; experiment: Potentiation of ciprofloxacin-induced antibacterial activity against Streptococcus pyogenes ATCC 14289 assessed as minimum modulatory concentration up to 32 uM measured after 16 hrs in presence of MIC/4 ciprofloxacin; format: functional; details: ATCC 14289, 16 h, read-out: MEC
[26] = test system: Macrophage cell line; experiment: Induction of IL-1beta production in human PBMC-differentiated macrophages after 24 hrs by ELISA; format: cell-based
[27] = test system: Escherichia coli; experiment: Potentiation of tetracycline-induced antibacterial activity against Escherichia coli ATCC 43894 assessed as minimum modulatory concentration up to 32 uM measured after 16 hrs in presence of MIC/4 tetracycline; format: functional; details: ATCC 43894, 16 h, read-out: MEC
[28] = test system: Staphylococcus aureus; experiment: Potentiation of ciprofloxacin-induced antibacterial activity against Staphylococcus aureus ATCC 33592 assessed as minimum modulatory concentration up to 32 uM measured after 16 hrs in presence of MIC/4 ciprofloxacin; format: functional; details: ATCC 33592, 16 h, read-out: MEC
[29] = test system: Enterococcus faecium; experiment: Potentiation of erythromycin-induced antibacterial activity against Enterococcus faecium ATCC 700221 assessed as minimum modulatory concentration up to 32 uM measured after 16 hrs in presence of MIC/4 erythromycin; format: functional; details: ATCC 700221, 16 h, read-out: MEC
[30] = test system: Escherichia coli; experiment: Toxicity in Escherichia coli ATCC 43894 up to 32 uM measured after 16 hrs; format: organism-based
[31] = test system: Enterococcus faecium; experiment: Potentiation of geneticin-induced antibacterial activity against Enterococcus faecium ATCC 700221 assessed as minimum modulatory concentration up to 32 uM measured after 16 hrs in presence of MIC/4 geneticin; format: functional; details: ATCC 700221, 16 h, read-out: MEC
[32] = test system: Escherichia coli; experiment: Potentiation of methicillin-induced antibacterial activity against Escherichia coli ATCC 43894 assessed as minimum modulatory concentration up to 32 uM measured after 16 hrs in presence of MIC/4 methicillin; format: functional; details: ATCC 43894, 16 h, read-out: MEC
[33] = test system: Staphylococcus aureus; experiment: Potentiation of geneticin-induced antibacterial activity against Staphylococcus aureus ATCC 33592 assessed as minimum modulatory concentration up to 32 uM measured after 16 hrs in presence of MIC/4 geneticin; format: functional; details: ATCC 33592, 16 h, read-out: MEC

Structure (SMILES)	minimal effective concentration [1]	minimal effective concentration [2]	Activity [3]	inhibition [4]	minimal effective concentration [5]	minimal effective concentration [6]	Activity [7]	minimal effective concentration [8]	minimal effective concentration [9]	minimal effective concentration [10]	inhibition [11]	minimal effective concentration [12]	minimal effective concentration [13]	minimal effective concentration [14]	Activity [15]	minimal effective concentration [16]	minimal effective concentration [17]	minimal effective concentration [18]	minimal effective concentration [19]	IC50 [20]	other results
C[n+]1ccc(C(=O)[O-])c(O)c1Cc1ccccc1	> 32 µM	> 32 µM	Non-Toxic	inactive	> 32 µM	> 32 µM	Non-Toxic	> 32 µM	> 32 µM	> 32 µM	inactive	> 32 µM	> 32 µM	> 32 µM	Non-Toxic	> 32 µM	> 32 µM	> 32 µM	> 32 µM	> 100 µM	Activity [21]: Non-Toxic; minimal effective concentration [22]: > 32 µM; minimal effective concentration [23]: > 32 µM; Activity [24]: Non-Toxic; minimal effective concentration [25]: > 32 µM; Activity [26]: Non-Toxic; minimal effective concentration [27]: > 32 µM; minimal effective concentration [28]: > 32 µM; minimal effective concentration [29]: > 32 µM; Activity [30]: Non-Toxic; minimal effective concentration [31]: > 32 µM; minimal effective concentration [32]: > 32 µM; minimal effective concentration [33]: > 32 µM
Cc1nc(-c2ccccc2)c(O)cc1C(=O)O	> 32 µM	> 32 µM	Non-Toxic	inactive	> 32 µM	16 µM	Non-Toxic	> 32 µM	4 µM	4 µM	inactive	4 µM	> 32 µM	4 µM	Non-Toxic	> 32 µM	> 32 µM	4 µM	2 µM	97.4 µM	Activity [21]: Non-Toxic; minimal effective concentration [22]: > 32 µM; minimal effective concentration [23]: 0.5 µM; Activity [24]: Non-Toxic; minimal effective concentration [25]: > 32 µM; Activity [26]: Non-Toxic; minimal effective concentration [27]: > 32 µM; minimal effective concentration [28]: 16 µM; minimal effective concentration [29]: 4 µM; Activity [30]: Non-Toxic; minimal effective concentration [31]: 8 µM; minimal effective concentration [32]: > 32 µM; minimal effective concentration [33]: 4 µM
COc1cccc(-c2cc(C(=O)O)c(O)cn2)c1	> 32 µM	> 32 µM	Non-Toxic	inactive	> 32 µM	> 32 µM	Non-Toxic	> 32 µM	> 32 µM	> 32 µM	inactive	> 32 µM	> 32 µM	> 32 µM	Non-Toxic	> 32 µM	> 32 µM	> 32 µM	> 32 µM	88.6 µM	Activity [21]: Non-Toxic; minimal effective concentration [22]: > 32 µM; minimal effective concentration [23]: 16 µM; Activity [24]: Non-Toxic; minimal effective concentration [25]: > 32 µM; Activity [26]: Non-Toxic; minimal effective concentration [27]: > 32 µM; minimal effective concentration [28]: > 32 µM; minimal effective concentration [29]: > 32 µM; Activity [30]: Non-Toxic; minimal effective concentration [31]: > 32 µM; minimal effective concentration [32]: > 32 µM; minimal effective concentration [33]: > 32 µM
